One may read the Kd as the concentration at which binding is half-saturated.

Molecules are shown by their SMILES.

This test concerns the target T1, beta-amyloid (Aβ) (Homo sapiens, UniProt P05067).
T1 construct: gene APP; Aβ plaques (fibrillar deposits) in cortical homogenates of APPswe (Tg2576) mice expressing APP with the Swedish mutation
The test can be described thus: radioligand saturation binding in APPswe mouse cortical homogenates; autoradiography.

T1 sequence (P05067 18-770): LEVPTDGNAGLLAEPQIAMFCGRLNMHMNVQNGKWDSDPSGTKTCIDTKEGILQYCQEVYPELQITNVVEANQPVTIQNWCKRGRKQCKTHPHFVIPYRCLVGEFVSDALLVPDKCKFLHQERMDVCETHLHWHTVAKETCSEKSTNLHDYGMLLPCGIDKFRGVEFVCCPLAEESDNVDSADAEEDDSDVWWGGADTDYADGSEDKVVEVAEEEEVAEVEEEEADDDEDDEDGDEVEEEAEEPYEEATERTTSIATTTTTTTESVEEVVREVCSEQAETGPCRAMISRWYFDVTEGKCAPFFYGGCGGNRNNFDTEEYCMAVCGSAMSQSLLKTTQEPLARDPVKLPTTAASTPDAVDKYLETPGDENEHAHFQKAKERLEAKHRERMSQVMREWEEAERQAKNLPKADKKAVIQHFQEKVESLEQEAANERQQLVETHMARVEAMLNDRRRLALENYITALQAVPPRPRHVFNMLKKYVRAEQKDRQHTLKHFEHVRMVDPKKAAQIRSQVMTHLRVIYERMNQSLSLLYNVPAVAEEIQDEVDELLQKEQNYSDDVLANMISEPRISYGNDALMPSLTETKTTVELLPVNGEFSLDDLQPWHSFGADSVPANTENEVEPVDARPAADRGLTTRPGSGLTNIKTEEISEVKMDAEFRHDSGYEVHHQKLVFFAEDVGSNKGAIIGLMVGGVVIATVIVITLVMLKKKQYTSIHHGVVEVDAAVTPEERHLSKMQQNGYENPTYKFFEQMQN

With `CNc1ccc(-c2nc3ccc(O)cc3s2)cn1` [AZD2184], the Kd is 10.6 nM.

(Values after PMC4424277, “Astrocytosis precedes amyloid plaque deposition in Alzheimer APPswe transgenic mouse brain: a correlative positron emission tomography and in vitro imaging study” (European Journal of Nuclear Medicine and Molecular Imaging, 2015).)
